Measured values published in PMC9570109, “Improved Trimethylangelicin Analogs for Cystic Fibrosis: Design, Synthesis and Preliminary Screening” (International Journal of Molecular Sciences, 2022).
Where two headings read alike, the source gives them in different places.

Columns and labels:
[1] = target: T1, F508del CFTR (Homo sapiens, UniProt P13569, DEL508-508); assay: F508del CFTR functional rescue (corrector) HS-YFP single-cell assay; type: cell-based; conditions: CFBE41o- YFP-F508del cells; for F508del CFTR rescue (corrector) activity: 48 h incubation, 200 nM
T1 construct: expressed in transfected cells; host or cells: CFBE41o- cells overexpressing F508del CFTR and HS-YFP (YFP-H148Q/I152L), a gift from N. Pedemonte, Gaslini Institute
Method: To verify the possibility that the title compounds may act as correctors in CFBE41o-, overexpressing F508del and the high sensitivity halide-sensing yellow fluorescent protein (HS-YFP) YFP-H148Q/I152L, we examined the effect of 48 h preincubation with vehicle or the TMA analogs or TMA or VX809 (Lumacaftor), as a positive control.
At the time of the assay, the correction of the F508del-CFTR function was evaluated in single-cell analysis by measuring the decrease in YFP fluorescence after the concomitant addition of extracellular iodide and the activating cocktail (20 μM forskolin and 5 μM VX770), in the presence or absence of the 10 μM CFTR inhibitor, CFTRinh-172. […] At least two derivatives show CFTR activity similar to that of the parent TMA.
The effect of TMA analogs on CFTR function was tested in CFBE41o- overexpressing F508del and the high sensitivity halide-sensing yellow fluorescent protein (HS-YFP) YFP-H148Q/I152L (a generous gift from N. Pedemonte, Gaslini Institute, Genova, Italy). YFP CF cells were seeded on round glass coverslips and preincubated for 48 h with vehicle or test compounds or VX809 or TMA. At the time of the assay, cells were washed in Dulbecco’s PBS (in mM: 137 NaCl, 2.7 KCl, 8.1 Na2HPO4, 1.5 KH2PO4, 1 CaCl2, and 0.5 MgCl2, pH 7.4) and subsequently incubated with a stimulation cocktail (20 μM forskolin and 5 μM VX770) in the presence and absence of 10 μM CFTR inhibitor, CFTRInh-172 (Sigma), for 30 min. The coverslips were then transferred on a Nikon TMD inverted microscope through a Nikon Fluor 40 objective. The signal was acquired with a Hamamatsu C2400–97 charge-coupled intensified video camera at a rate of 1 frame/3 s. The fluorescence coming from every single cell was analyzed by custom software (Spin, Vicenza, Italy). The results are presented as transformed data to obtain the percentage signal variation (Fx) relative to the time of addition of the stimulus, according to the equation: Fx = ([Ft − Fo]/Fo) × 100, where Ft and Fo are the fluorescence values at time t and at the time of stimulus addition, respectively. The assay of each sample consists of a continuous 99-s fluorescence reading with 30 s before and 69 s after injection of the iodide-rich Dulbecco’s PBS (in mM: 137 NaI, 2.7 KCl, 8.1 Na2HPO4, 1.5 KH2PO4, 1 CaCl2, and 0.5 MgCl2, pH 7.4) to reach a final iodide concentration of 50 mM [20]. The different sensitivity of HS-YFP toward iodide and chloride allows assays to be performed by measuring the transport of anions through the plasma membrane as changes in cell fluorescence. For this assay, cells expressing HS-YFP are equilibrated in a physiological chloride-rich saline solution (e.g., Dulbecco’s PBS). During fluorescence reading, cells are exposed to a high concentration of iodide. Iodide influx quenches the cell fluorescence with a rate that depends on the permeability of the cell membrane to halides, and therefore, on the activity of the anion channels or transporters.
Figure 4 Evaluation of different TMA analogs as F508del CFTR correctors in CFBE41o- YFP-F508del cells. Correction of F508del-CFTR function was assessed, in a single cell, by measuring the decrease in YFP fluorescence upon addition of extracellular iodide and with the activating cocktail, in the presence or absence of CFTR inhibitor, CFTRInh-172. Iodide influx was tested under control condition (vehicle) or after 48 h incubation with the correctors 200 nM or 1 μM VX809. The YFP fluorescence decay rate was calculated by fitting the fluorescence data with an exponential function of time courses. CFTR activity was obtained by the difference between the fluorescence decay rate of YFP in the presence and absence of CFTRInh-172. Fluorescence coming from every single cell of at least five cells per field was recorded. Each bar corresponds to the mean ± SEM of data points coming from at least three different experiments (5–10 different cells/each experiment). […]

[2] = set-up: method as in PMID 29627723; conditions: cited from earlier work
[3] = test system: CFTR in FRT-YFP-G551D cells; set-up: method as in PMID 30022950; conditions: cited from earlier work
[4] = target: T1, F508del CFTR; set-up: method as in PMID 30022950; conditions: nanomolar concentrations; cited from earlier work
[5] = In vivo oral pharmacokinetics in mice; conditions: c57BL/6 male mice
Method: The main pharmacokinetic parameters of 4-PhDMA, pANDMA, and pANDMA mesylate were evaluated in c57BL/6 male mice, using water as dispersing vehicle.
All experimental procedures involving animals were conducted in accordance with the 3R principle to minimize their pain and discomfort. […] For the PK analysis, C57Bl6 male mice (n = 3 per time point) were gavaged with selected compounds (20 mg/kg), suspended in water, or dissolved in SEDDS formulations, after an overnight fast. […] 8.0 software (GraphPad Software Inc., San Diego, CA, USA), when appropriate. If not otherwise stated, the PK data are expressed as mean ± SD. p < 0.05 was considered statistically significant.
The TMA analogs were extracted and analyzed from mouse plasma as already reported. Briefly, 100 µL of plasma were treated with 300 µL of cold acetonitrile spiked with 80 nM of internal standard (IS, 6,4′-dimethylangelicin), and then the samples were centrifuged for 10 min at 12,000× g (Hettich Mikro 120 Benchtop Centrifuge) and 25 °C. Ten microliters of the supernatant were injected into the UHPLC system.
The analytical column was a Kinetex 2.6 μm C18 Polar, 100 A, 100 × 2.1 mm (Phenomenex, Bologna, Italy), thermostated at 30 °C. The mobile phase components A and B were water and methanol, respectively, both containing 10 mM ammonium formate. The eluent flow rate was 0.25 mL/min. […] MS data were analyzed using the Mass Hunter Qualitative Analysis software (Agilent Technologies, Palo Alto, CA, USA).
Chromatographic peaks of the TMA analog were identified and integrated by considering the Extracted Ion Chromatogram (EIC) of the [M+H]^+ species selected with a window of 5 ppm and normalized by the IS. Quantification of TMA analogs was carried out by external calibration of normalized signals using a seven-point calibration curve obtained by spiking blank plasma with each TMA analog in the range of 20–3000 nM.

[6] = test system: NF-kB/DNA interactions; set-up: method as in PMID 29627723; conditions: cited from earlier work
[7] = test system: salmon testes DNA; assay: Photoadduct formation with DNA under UVA irradiation (TLC analysis); conditions: 15 J/cm2 UVA
Method: The total energy that struck the sample was monitored by means of a radiometer (Variocontrol, Waldmann, Villingen-Schwenningen, Germany), equipped with a Variocontrol UV Sensor (Waldmann). The radiant power emitted by the UVA lamp was about […]. The samples were maintained at room temperature during irradiation.
The test compounds were dissolved in ethanol (2 mg/mL) and salmon testes DNA (Sigma-Aldrich) was dissolved in 10 mM NaCl and 1 mM EDTA solution (1.5 × 10^−3 M). Each test solution (250 μL) was added dropwise to the DNA solution (5 mL). The mixture was irradiated with 15 J/cm2 UVA light in a glass dish for 1 h. After irradiation, the DNA was precipitated with 1 M NaCl and two volumes of cold ethanol; the precipitated DNA was collected, washed with 80% ethanol, dried, and then dissolved in water. To obtain hydrolysis, the final solution was acidified with 1 M HCl, heated at 100 °C for 1 h, neutralized with NaOH and extracted three times with chloroform. Then, all of the organic layers were collected, dried under a high vacuum, and dissolved in ethanol. The hydrolyzed mixtures were separated by thin layer chromatography (TLC; F254 plates, 0.25 mm, Merck, Darmstadt, Germany) eluting with EtOAc/EtOH (9:1). The plates were analyzed with a Mineral Light Lamp VL-4LC VILBERT-LOURMAT (Vilber, Marne-la-Vallée, France).

[8] = test system: HepG2 cells; assay: Cytotoxicity MTT assay on HepG2 cells; conditions: HepG2, 24 h, highest concentration tested (50 μM)
Method: The potential toxicity of TMA analogs on hepatic tissue was assessed by evaluating the viability of HepG2 cells (ATCC, HB-8065) using the MTT assay, as previously reported [22]. Cells were maintained in DMEM complete medium (10% FBS, 1% l-glutamine and 1% PEN-STREP) and seeded in a 96-well plate (5 × 10^4 cells/mL). They were treated for 24 h with TMA analogs (concentration range from 3.125 μM to 50 μM). At the end of the treatment, cells were washed and an MTT solution (0.5 mg/mL in complete medium) was added to each well and incubated for 4 h at 37 °C. The solution was discarded, and the produced blue formazan crystals were dissolved with acidified isopropanol (2% HCl). Absorbance was measured at 570 nm using a multiplate reader (Victor Nivo, Perkin Elmer). The percentage of viable cells was calculated considering untreated cells as control.
The data shown in this figure are the results of three independent experiments, each
performed in quadruplicate.

[9] = mouse, plasma, po, 20 mg/kg gavage, in water

T1 sequence (P13569 with tags, fused parts or gaps DEL508-508): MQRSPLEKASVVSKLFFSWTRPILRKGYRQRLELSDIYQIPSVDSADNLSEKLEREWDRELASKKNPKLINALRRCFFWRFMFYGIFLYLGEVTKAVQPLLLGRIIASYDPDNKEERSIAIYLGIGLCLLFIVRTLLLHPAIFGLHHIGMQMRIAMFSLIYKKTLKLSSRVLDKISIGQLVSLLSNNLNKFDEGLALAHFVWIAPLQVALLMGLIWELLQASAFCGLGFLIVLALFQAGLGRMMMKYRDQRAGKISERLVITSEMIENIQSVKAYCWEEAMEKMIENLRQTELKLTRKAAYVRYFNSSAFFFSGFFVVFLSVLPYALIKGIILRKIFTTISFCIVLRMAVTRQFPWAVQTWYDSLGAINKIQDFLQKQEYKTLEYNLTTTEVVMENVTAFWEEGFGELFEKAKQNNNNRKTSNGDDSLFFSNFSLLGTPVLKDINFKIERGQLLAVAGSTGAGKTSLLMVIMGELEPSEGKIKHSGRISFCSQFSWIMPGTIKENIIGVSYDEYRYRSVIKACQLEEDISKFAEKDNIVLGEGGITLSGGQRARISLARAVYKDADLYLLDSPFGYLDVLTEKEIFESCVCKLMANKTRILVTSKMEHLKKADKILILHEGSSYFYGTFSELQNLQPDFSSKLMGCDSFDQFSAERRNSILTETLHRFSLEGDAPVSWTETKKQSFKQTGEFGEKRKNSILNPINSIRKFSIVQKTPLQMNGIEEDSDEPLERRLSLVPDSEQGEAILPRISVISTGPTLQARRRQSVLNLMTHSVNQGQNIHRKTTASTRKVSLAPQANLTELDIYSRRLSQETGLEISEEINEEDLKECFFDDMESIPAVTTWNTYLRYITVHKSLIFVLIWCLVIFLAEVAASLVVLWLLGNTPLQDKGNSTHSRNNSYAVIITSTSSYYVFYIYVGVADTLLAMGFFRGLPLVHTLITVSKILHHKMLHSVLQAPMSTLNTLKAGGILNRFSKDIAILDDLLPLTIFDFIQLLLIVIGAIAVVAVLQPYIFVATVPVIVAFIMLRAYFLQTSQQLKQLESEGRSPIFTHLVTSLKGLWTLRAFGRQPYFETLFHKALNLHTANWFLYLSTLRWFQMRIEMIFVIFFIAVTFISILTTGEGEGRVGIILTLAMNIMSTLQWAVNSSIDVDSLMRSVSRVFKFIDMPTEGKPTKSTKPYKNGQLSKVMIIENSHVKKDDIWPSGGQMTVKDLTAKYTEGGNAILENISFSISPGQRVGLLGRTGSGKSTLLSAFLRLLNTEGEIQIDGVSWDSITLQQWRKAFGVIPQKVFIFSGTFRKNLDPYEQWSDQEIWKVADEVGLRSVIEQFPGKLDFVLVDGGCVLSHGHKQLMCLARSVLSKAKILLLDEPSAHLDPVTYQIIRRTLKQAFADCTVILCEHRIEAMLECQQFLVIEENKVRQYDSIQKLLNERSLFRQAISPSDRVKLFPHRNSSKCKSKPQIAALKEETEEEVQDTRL

## CCc1cc2c(-c3ccccc3)cc(=O)oc2c2c(C)coc12 [4-PhEMA]
[1]
  F508del CFTR rescue (corrector) activity: inactive

## Cc1coc2c(-c3ccccc3)cc3c(C4CC4)cc(=O)oc3c12 [CPPhMA]
[1]
  F508del CFTR rescue (corrector) activity: inactive

## CCc1cc2c(C(C)C)cc(=O)oc2c2c(C)coc12 [IPEMA, 4-isopropyl-6-ethyl-4′-methylangelicin]
[2]
  mutagenicity and DNA damaging properties: lacking mutagenicity and DNA damaging properties
[3]
  potentiation activity of CFTR: maintained the potentiation activity
[4]
  rescue of F508del CFTR-dependent chloride efflux: significantly rescued
[5]; 20 mg/kg gavage, in water
  CL/F: 0.0633 ± 0.005 mL/h/g
[5]; water as vehicle
  oral bioavailability: very low
[5]; [9]
  Cmax: 120 ± 55.3 nM
  half-life: 9.01 ± 1.34 h
[5]; mouse, plasma, po, 20 mg/kg gavage, in water, read-out: AUC 0-inf
  AUC 0-inf: 0.395 ± 0.0987 µM·h
[5]; mouse, plasma, po, 20 mg/kg gavage, in water, read-out: Tmax
  Tmax: 1 h
[6]
  inhibitory activity on NF-kB/DNA interactions: TMA-like inhibitory activity

## Cc1coc2c(-c3ccccc3)cc3c(C(C)C)cc(=O)oc3c12 [IPPhMA]
[1]
  F508del CFTR rescue (corrector) activity: inactive

## Cc1cc(=O)oc2c1cc(-c1ccncc1)c1occ(C)c12 [PyDMA]
[1]
  F508del CFTR rescue (corrector) activity: inactive

## Cc1cc(=O)oc2c1cc(C)c1occ(C)c12 [TMA, 4,6,4′-trimethylangelicin, reference compound]
[7]
  photoadduct formation with DNA upon UVA irradiation: showed photoadducts

## Cc1cc(=O)oc2c1cc(-c1cccs1)c1occ(C)c12 [ThiDMA]
[1]
  F508del CFTR rescue (corrector) activity: inactive

## Cc1cc(=O)oc2c1cc(-c1cccc(N)c1)c1occ(C)c12 [mANDMA]
[1]
  F508del CFTR rescue (corrector) activity: inactive

## CS(=O)(=O)O.Cc1cc(=O)oc2c1cc(-c1ccc(N)cc1)c1occ(C)c12 [pANDMA mesylate]
[8]
  cell viability: greater than 75%
[1]; 48 h treatment, representative time courses
  reduction in YFP fluorescence induced by iodide influx compared to vehicle: greater reduction in YFP fluorescence
[5]; 20 mg/kg gavage, in water
  AUC 0-inf: 9.4026 ± 0.7422 µM·h
  CL/F: 0.0091 ± 0.0002 mL/h/g
  Cmax: 3870 ± 1070 nM
  Tmax: 0.375 ± 0.177 h
  t1/2: 1.87 ± 0.43 h
[5]; water as vehicle
  bioavailability relative to pANDMA: nearly four-times more bioavailable
